The target in this test is integrin αIIbβ3 (Homo sapiens, UniProt P05106+P08514). The format is binding.

pIC50: −log10 of the molar value.

integrin αIIbβ3, sequence (P08514 32-887): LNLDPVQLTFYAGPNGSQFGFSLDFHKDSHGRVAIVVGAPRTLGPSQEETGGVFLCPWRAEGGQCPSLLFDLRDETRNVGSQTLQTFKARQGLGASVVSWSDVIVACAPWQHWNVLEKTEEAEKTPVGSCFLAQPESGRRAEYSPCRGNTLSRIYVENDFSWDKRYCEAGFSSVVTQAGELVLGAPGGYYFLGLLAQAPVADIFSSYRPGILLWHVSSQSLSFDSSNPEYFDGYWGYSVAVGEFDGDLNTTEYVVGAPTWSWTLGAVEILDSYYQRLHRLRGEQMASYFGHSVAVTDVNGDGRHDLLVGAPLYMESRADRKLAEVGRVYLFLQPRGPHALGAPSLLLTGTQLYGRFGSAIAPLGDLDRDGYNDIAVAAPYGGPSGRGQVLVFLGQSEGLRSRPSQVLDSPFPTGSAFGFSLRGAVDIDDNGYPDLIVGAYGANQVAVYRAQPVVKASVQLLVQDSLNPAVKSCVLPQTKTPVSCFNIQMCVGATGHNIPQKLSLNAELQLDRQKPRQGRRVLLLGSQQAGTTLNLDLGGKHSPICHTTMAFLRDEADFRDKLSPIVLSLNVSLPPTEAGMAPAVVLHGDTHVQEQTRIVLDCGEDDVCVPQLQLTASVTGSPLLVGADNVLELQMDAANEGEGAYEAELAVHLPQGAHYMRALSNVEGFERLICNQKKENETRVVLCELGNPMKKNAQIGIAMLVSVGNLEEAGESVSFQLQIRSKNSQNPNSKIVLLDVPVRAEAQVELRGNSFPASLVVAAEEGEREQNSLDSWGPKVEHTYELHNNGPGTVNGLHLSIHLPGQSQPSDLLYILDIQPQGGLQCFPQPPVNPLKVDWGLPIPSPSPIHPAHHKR
integrin αIIbβ3, sequence (P08514 891-1039): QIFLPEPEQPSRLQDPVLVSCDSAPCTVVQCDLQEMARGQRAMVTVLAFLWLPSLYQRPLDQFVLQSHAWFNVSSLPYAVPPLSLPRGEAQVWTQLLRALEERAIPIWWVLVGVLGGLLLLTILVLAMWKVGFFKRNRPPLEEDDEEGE
integrin αIIbβ3, sequence (P05106 27-788): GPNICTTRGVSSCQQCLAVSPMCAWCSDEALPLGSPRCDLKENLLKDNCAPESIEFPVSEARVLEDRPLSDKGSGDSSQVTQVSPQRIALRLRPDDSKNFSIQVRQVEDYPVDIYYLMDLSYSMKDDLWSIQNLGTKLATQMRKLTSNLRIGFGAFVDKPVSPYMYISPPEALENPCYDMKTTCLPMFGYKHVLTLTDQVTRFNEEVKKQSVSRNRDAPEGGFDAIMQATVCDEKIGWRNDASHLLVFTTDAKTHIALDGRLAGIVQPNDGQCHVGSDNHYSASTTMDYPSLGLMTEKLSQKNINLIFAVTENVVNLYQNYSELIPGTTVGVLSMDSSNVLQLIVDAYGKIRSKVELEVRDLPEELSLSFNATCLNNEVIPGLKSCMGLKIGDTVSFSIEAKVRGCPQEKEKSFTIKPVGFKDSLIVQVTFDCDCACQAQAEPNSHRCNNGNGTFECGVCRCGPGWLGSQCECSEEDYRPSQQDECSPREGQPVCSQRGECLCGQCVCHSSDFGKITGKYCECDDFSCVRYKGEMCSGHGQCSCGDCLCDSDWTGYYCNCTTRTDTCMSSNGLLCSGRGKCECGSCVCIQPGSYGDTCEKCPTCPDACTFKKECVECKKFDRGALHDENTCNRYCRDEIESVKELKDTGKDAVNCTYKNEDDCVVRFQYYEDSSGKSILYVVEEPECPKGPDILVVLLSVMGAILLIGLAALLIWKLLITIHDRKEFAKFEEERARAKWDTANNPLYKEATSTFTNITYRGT

As a reminder, the pIC50 is −log10 of the IC50, conventionally taken in molar units. Read a high pIC50 as a low IC50. Regarding `CCCC(=O)NC(Cc1ccc2cc(OCc3ccc(C(=N)N)cc3)ccc2c1)C(=O)O` (stereo not shown) [ND-1, 2-butyramido-3-(6-((4-carbamimidoylbenzyl)oxy)naphthalen-2-yl)propanoic acid], the pIC50 was 5.51.

For the origin of these results see paper PMC5206433 (BioMed Research International, 2016).
